Data from PMC10653547, “Synergistic effect of two antimicrobial peptides, BP203 and MAP-0403 J-2 with conventional antibiotics against colistin-resistant Escherichia coli and Klebsiella pneumoniae clinical isolates” (PLOS ONE, 2023).
“Also recorded” adds a separate entry of the source. Where two headings read alike, the source gives them in different places. No end group written: not given here.

Assays:
[1] = at 100 μM (~678 μg/mL); cited from earlier work
Source text: The stability of AMPs is crucial for storage and applications. Temperature and pH are critical parameters impacting AMP stability. In addition, the good stability of AMPs to physiological salts and serum has been considered a desirable property for clinical applications. In this study, BP203 and MAP-0403 J-2 retained antibacterial activity under elevated temperatures, various pH conditions, and in the presence of physiological salts and serum environment. […] The hemolytic activity of BP203 at 150 μM (~300 μg/mL) wa ...

[2] = tested on: K. pneumoniae ATCC BAA-1706
Experimental: (§1) The MICs of BP203 and MAP-0403 J-2 against clinically colistin-resistant E. coli and K. pneumoniae isolates were determined using the broth microdilution method, according to CLSI recommendations. Briefly, the peptides were subjected to serial dilution in cation-adjusted Mueller-Hinton broth (CAMHB) and added to a 96-well microtiter plate (Wuxi NEST Biotechnology, Wuxi, China). Subsequently, bacterial suspensions from freshly mid-log phase cultures were diluted to 10^6 CFU/mL with CAMHB, and introduced to each well containing the peptides.
(§2) The antibacterial activity of BP203 and MAP-0403 J-2 was evaluated concerning their response to temperature, pH, serum, and salt ions using the MIC assay, following the previously mentioned procedure. The MIC values of peptides were determined against E. coli ATCC29522 and K. pneumoniae ATCC BAA-1706. […] For the pH stability assay, both peptides were incubated in buffers with different pH values (100 mM buffers: glycine-HCl buffer (pH 2.0), sodium acetate buffer (pH 4.0), sodium phosphate buffer (pH 6.0), Tris-HCl buffer (pH 8.0), and glycine-NaOH buffer (pH 10.0)) for 1 h at 37°C. […] For serum stability assay, both peptides were exposed to 25% and 50% fetal bovine serum (FBS) for 1 h at 37°C, followed by a heat activation step for 30 min at 60°C. Afterward, the peptide solutions were serially diluted and MIC was subsequently determined. For the salt stability assay, each peptide was treated in MHB supplemented with different salts at their physiological concentrations; NaCl (100, 150, and 200 mM), MgCl2 (0.5, 1 and 2 mM), and FeCl3 […]. The serial dilutions of peptides were incubated with tested strains for MIC testing. The MICs were observed after 20–24 h of incubation at 37°C.

E. coli ATCC 25922 = tested on: E. coli ATCC 25922
Experimental: as §1, §2

[3] = tested on: K. pneumoniae ATCC BAA-1706 and colistin-resistant K. pneumoniae clinical isolates
Experimental: as §1

[4] = tested on: E. coli ATCC 25922 and colistin-resistant E. coli clinical isolates
Experimental: as §1

sheep red blood cells = assay: Hemolytic activity assay; type: cell-based; conditions: at concentrations as high as 200 μg/mL
Experimental: Sheep erythrocytes were employed to assess the hemolytic activity of BP203 and MAP-0403 J-2, following previously described with some modifications. Briefly, defibrinated sheep red blood cells (sRBCs) were centrifuged at 1,000× g, 4°C for 10 min. The packed sRBCs underwent three times washes with phosphate buffer saline (PBS), at pH 7.4, and were subsequently suspended in PBS to achieve a concentration of 4% (v/v). […] Following an incubation period of 1 h at 37°C, the mixtures were centrifuged at room temperature, 1,000× g for 10 min. The supernatants were collected and transferred to a 96-well microplate. Next, absorbance measurement was taken at 540 nm using a microplate reader (Tecan Group, Zurich, Switzerland). Blank, negative and positive controls were established using sRBCs incubated with PBS alone, BSA solution, and 0.1% Triton X-100, respectively. […] The percentage of hemolytic activity was calculated with the following equation: Hemolysis (%) = {(Sample absorbance—PBS absorbance)/(0.1% Triton X-100 absorbance—PBS absorbance)} × 100.

[5] = 25% fetal bovine serum, 1 h at 37 °C
[6] = 50% fetal bovine serum, 1 h at 37 °C
[7] = pH 2, 100 mM glycine-HCl buffer, 1 h at 37 °C, neutralized
[8] = pH 4, 100 mM sodium acetate buffer, 1 h at 37 °C, neutralized
[9] = pH 6, 100 mM sodium phosphate buffer, 1 h at 37 °C, neutralized
[10] = pH 8, 100 mM Tris-HCl buffer, 1 h at 37 °C, neutralized
[11] = pH 10, 100 mM glycine-NaOH buffer, 1 h at 37 °C, neutralized
[12] = peptide incubated 1 h at 25 °C (control)

KWLRRPWRRWR-NH2 [MAP-0403 J-2]
Hemolytic activity [1]: 3.4% | MIC after FBS treatment ([2]; 0% FBS (control)): 16 µg/mL | MIC after FBS treatment [2, 5]: 16 µg/mL | MIC after FBS treatment [2, 6]: 16 µg/mL | MIC after pH treatment [2, 7]: 16 μg/mL | MIC after pH treatment [2, 8]: 16 μg/mL | MIC after pH treatment [2, 9]: 16 μg/mL | MIC after pH treatment ([2]; pH 7 (control)): 16 μg/mL | MIC after pH treatment [2, 10]: 16 μg/mL | MIC after pH treatment [2, 11]: 16 μg/mL | MIC after temperature treatment [2, 12]: 16 µg/mL | MIC after temperature treatment ([2]; peptide incubated 1 h at 37 °C): 16 µg/mL | MIC after temperature treatment ([2]; peptide incubated 1 h at 50 °C): 16 µg/mL | MIC after temperature treatment ([2]; peptide incubated 1 h at 70 °C): 16 µg/mL | MIC after temperature treatment ([2]; peptide incubated 1 h at 90 °C): 16 µg/mL | MIC after FBS treatment (E. coli ATCC 25922; 0% FBS (control)): 16 µg/mL | MIC after FBS treatment (E. coli ATCC 25922; [5]): 16 µg/mL | MIC after FBS treatment (E. coli ATCC 25922; [6]): 32 µg/mL | MIC after pH treatment (E. coli ATCC 25922; [7]): 16 μg/mL | MIC after pH treatment (E. coli ATCC 25922; [8]): 16 μg/mL | MIC after pH treatment (E. coli ATCC 25922; [9]): 16 μg/mL | MIC after pH treatment (E. coli ATCC 25922; pH 7 (control)): 16 μg/mL | MIC after pH treatment (E. coli ATCC 25922; [10]): 16 μg/mL | MIC after pH treatment (E. coli ATCC 25922; [11]): 16 μg/mL | MIC after temperature treatment (E. coli ATCC 25922; [12]): 16 µg/mL | MIC after temperature treatment (E. coli ATCC 25922; peptide incubated 1 h at 37 °C): 16 µg/mL | MIC after temperature treatment (E. coli ATCC 25922; peptide incubated 1 h at 50 °C): 16 µg/mL | MIC after temperature treatment (E. coli ATCC 25922; peptide incubated 1 h at 70 °C): 16 µg/mL | MIC after temperature treatment (E. coli ATCC 25922; peptide incubated 1 h at 90 °C): 16 µg/mL | MBC ([3]; K. pneumoniae ATCC BAA-1706): 16 µg/mL | MIC ([3]; K. pneumoniae ATCC BAA-1706): 16 µg/mL | MBC ([3]; KP-01): >512 µg/mL | MIC ([3]; KP-01): >512 µg/mL | MBC ([3]; KP-02): 256 µg/mL | MIC ([3]; KP-02): 128 µg/mL | MBC ([3]; KP-03): >512 µg/mL | MIC ([3]; KP-03): >512 µg/mL | MBC ([3]; KP-04): >512 µg/mL | MIC ([3]; KP-04): >512 µg/mL | MBC ([3]; KP-05): 512 µg/mL | MIC ([3]; KP-05): 256 µg/mL | MBC ([3]; KP-06): >512 µg/mL | MIC ([3]; KP-06): >512 µg/mL | MBC ([3]; KP-07): >512 µg/mL | MIC ([3]; KP-07): >512 µg/mL | MBC ([3]; KP-08): >512 µg/mL | MIC ([3]; KP-08): >512 µg/mL | MBC ([3]; KP-09): >512 µg/mL | MIC ([3]; KP-09): >512 µg/mL | MBC ([3]; KP-10): >512 µg/mL | MIC ([3]; KP-10): >512 µg/mL | MIC against colistin-resistant K. pneumoniae clinical isolates ([3]; range over ten isolates): ≥ 512 µg/mL | MBC ([4]; E. coli ATCC 25922): 16 µg/mL | MIC ([4]; E. coli ATCC 25922): 16 µg/mL | MBC ([4]; EC-01): 32 µg/mL | MIC ([4]; EC-01): 16 µg/mL | MBC ([4]; EC-02): 32 µg/mL | MIC ([4]; EC-02): 32 µg/mL | MBC ([4]; EC-03): 16 µg/mL | MIC ([4]; EC-03): 8 µg/mL | MBC ([4]; EC-04): 8 µg/mL | MIC ([4]; EC-04): 8 µg/mL | MBC ([4]; EC-05): 64 µg/mL | MIC ([4]; EC-05): 32 µg/mL | MBC ([4]; EC-06): 32 µg/mL | MIC ([4]; EC-06): 32 µg/mL | MBC ([4]; EC-07): 32 µg/mL | MIC ([4]; EC-07): 32 µg/mL | MBC ([4]; EC-08): 64 µg/mL | MIC ([4]; EC-08): 32 µg/mL | MBC ([4]; EC-09): 32 µg/mL | MIC ([4]; EC-09): 8 µg/mL | MBC ([4]; EC-10): 64 µg/mL | MIC ([4]; EC-10): 32 µg/mL | MICs against colistin-resistant E. coli clinical isolates ([4]; range over ten isolates): 8 to 32 µg/mL | Hemolysis (in words) (sheep red blood cells): negligible hemolysis; also recorded: no hemolytic activity
